Values quoted from earlier work as cited in paper PMC11046985 (Neuro-Oncology Advances, 2024).

How the values were obtained:
[1] = set-up: method as in earlier work; conditions: erlotinib increased from 150 to 600 mg; cited from earlier work
[2] = daily administration, patients with brain tumors; cited from earlier work

| SMILES | Increase of area under the curve estimation in the CSF [1] [%] | Increase of area under the curve estimation in the plasma [1] [%] | Therapeutic levels in cerebrospinal fluid (CSF) [2] |
| --- | --- | --- | --- |
| C#Cc1cccc(Nc2ncnc3cc(OCCOC)c(OCCOC)cc23)c1 [erlotinib] | 24 | 2 | did not appear to reach therapeutic levels |
| COc1cc2ncnc(Nc3ccc(F)c(Cl)c3)c2cc1OCCCN1CCOCC1 [gefitinib] |  |  | did not appear to reach therapeutic levels |
